Earlier results, collected in patent US20040266797A1, “Use of potent,selective and non toxic c-kit inhibitors for treating tumor angiogensis” (priority 2001, published 2004).

Test system: tumor growth
Conditions: inhibiting mast cell degranulation

In the case of `O=C([O-])c1cc(=O)c2c(OCC(O)COc3cccc4oc(C(=O)[O-])cc(=O)c34)cccc2o1.[Na+].[Na+]` [disodium cromoglycate], the tumor growth is given as “significantly depresse tumor growth”.
